Where a name gives a salt, the structure may show the parent alone.
System: HCT116
Conditions: 72 h
Method in brief: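 HCT116 cells were seeded at 250 per well in 1536-well plates with 5 h allowed for attachment. CellTiter-Glo luminescence was normalized against vehicle (0%) and positive control (-100%) before pattern correction. The IC50 and maximal efficacy figures derive from four-parameter Hill fits.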

IC50 cell viability (ICRF193 0 nM) [µM]	IC50 cell viability (ICRF193 200 nM) [µM]	SMILES
> 45.8	> 45.8	CC(C)CN(C[C@@H](O)[C@H](Cc1ccccc1)NC(=O)O[C@H]1CCOC1)S(=O)(=O)c1ccc(N)cc1 [Amprenavir]
> 45.8	> 45.8	CCCc1ncc(C[n+]2ccccc2C)c(N)n1 [Amprolium hydrochloride]
> 45.8	> 45.8	Nc1cc(-c2ccncc2)c[nH]c1=O [Amrinone]
> 45.8	> 45.8	CCCCCc1ccc(C)cc1O [Amylmetacresol]
> 45.8	> 45.8	C[N+]1(CC2COC(c3ccccc3)(c3ccccc3)O2)CCCCC1 (stereo unspecified) [Anacolin]
> 45.8	> 45.8	O=C1CN2Cc3c(ccc(Cl)c3Cl)N=C2N1 [Anagrelide hydrochloride]
> 45.8	> 45.8	CC(C)(C#N)c1cc(Cn2cncn2)cc(C(C)(C)C#N)c1 [Anastrozole]
> 45.8	> 45.8	C[C@]12CCC(=O)C[C@@H]1CC[C@@H]1[C@@H]2CC[C@]2(C)C=CC[C@@H]12 [Androstenone]
> 45.8	> 45.8	COc1ccc(-c2cc(=S)ss2)cc1 [Anethole trithione]
> 45.8	> 45.8	C/C=C/c1ccc(OC)cc1 [Anethole]
> 45.8	> 45.8	CCCCCOc1ccc(-c2ccc(-c3ccc(C(=O)N[C@H]4C[C@@H](O)[C@@H](O)NC(=O)[C@@H]5[C@@H](O)[C@@H](C)CN5C(=O)[C@H]([C@@H](C)O)NC(=O)[C@H]([C@H](O)[C@@H](O)c5ccc(O)cc5)NC(=O)[C@@H]5C[C@@H](O)CN5C(=O)[C@H]([C@@H](C)O)NC4=O)cc3)cc2)cc1 [Anidulafungin]
> 45.8	> 45.8	COc1ccc(C2C(=O)c3ccccc3C2=O)cc1 [Anisindione]
> 45.8	> 45.8	CCCC(CCC)C(=O)O[C@H]1C[C@H]2CC[C@@H](C1)[N+]2(C)C [Anisotropine methylbromide]
> 45.8	> 45.8	c1ccc(CN(CC2=NCCN2)c2ccccc2)cc1 [Antazoline hydrochloride]
> 45.8	> 45.8	O=C1c2c(O)cccc2Cc2cccc(O)c21 [Anthralin]
> 45.8	> 45.8	COc1ccc(-n2nc(C(N)=O)c3c2C(=O)N(c2ccc(N4CCCCC4=O)cc2)CC3)cc1 [Apixaban]
> 45.8	> 45.8	NNc1nncc2ccccc12 [Apresoline]
> 45.8	> 45.8	CCN(CC)CCCN(c1ccccc1)C1Cc2ccccc2C1 [Aprindine hydrochloride]
> 45.8	> 45.8	OC[C@H]1O[C@@H](Oc2ccc(O)cc2)[C@H](O)[C@@H](O)[C@@H]1O [Arbutin]
> 45.8	> 45.8	CC1CNc2c(cccc2S(=O)(=O)N[C@@H](CCCNC(=N)N)C(=O)N2CC[C@@H](C)C[C@@H]2C(=O)O)C1 (stereo partly specified) [Argatroban]

IC50 cell viability (ICRF193 0 nM) [µM]	IC50 cell viability (ICRF193 200 nM) [µM]	SMILES
> 45.8	> 45.8	CC(C)(C)NCC(O)CSc1nc(-c2ccc(C(N)=O)s2)cs1 (stereo unspecified) [Arotinolol hydrochloride]
> 45.8	> 45.8	CO[C@H]1O[C@@H]2O[C@@]3(C)CC[C@H]4[C@H](C)CC[C@@H]([C@H]1C)[C@@]24OO3 [Artemether]
> 45.8	> 45.8	CCCNC(C)C(=O)Nc1c(C)csc1C(=O)OC (stereo unspecified) [Articaine hydrochloride]
> 45.8	> 45.8	CN1CC2c3ccccc3Oc3ccc(Cl)cc3C2C1 (stereo unspecified) [Asenapine]
> 45.8	> 45.8	CC(=O)Oc1ccccc1C(=O)O [Aspirin]
> 45.8	> 45.8	CNC(=O)C[C@@H](N)C(=O)N[C@@H](C(=O)N[C@@H]1C(=O)N2[C@@H]1SC(C)(C)[C@@H]2C(=O)O)c1ccc(O)cc1 [Aspoxicillin]
> 45.8	> 45.8	CO[C@H]1[C@@H](O)[C@H](N)[C@@H](O[C@H]2O[C@H]([C@H](C)N)CC[C@H]2N)[C@H](O)[C@@H]1N(C)C(=O)CN [Astromicin]
> 45.8	> 45.8	COC(=O)N[C@H](C(=O)N[C@@H](Cc1ccccc1)[C@@H](O)CN(Cc1ccc(-c2ccccn2)cc1)NC(=O)[C@@H](NC(=O)OC)C(C)(C)C)C(C)(C)C [Atazanavir]
> 45.8	> 45.8	CCOc1ccc(C[C@H]2NC(=O)CCSSC[C@@H](C(=O)N3CCC[C@H]3C(=O)N[C@@H](CCCN)C(=O)NCC(N)=O)NC(=O)[C@H](CC(N)=O)NC(=O)[C@H]([C@@H](C)O)NC(=O)[C@H]([C@@H](C)CC)NC2=O)cc1 [Atosiban]
> 45.8	> 45.8	COc1ccc(CC2c3cc(OC)c(OC)cc3CC[N+]2(C)CCC(=O)OCCCCCOC(=O)CC[N+]2(C)CCc3cc(OC)c(OC)cc3C2Cc2ccc(OC)c(OC)c2)cc1OC (stereo unspecified) [Atracurium besylate]
> 45.8	> 45.8	COc1ccc([C@@H]2CC(=O)c3c(O)cc(O[C@@H]4O[C@H](CO[C@@H]5O[C@@H](C)[C@H](O)[C@@H](O)[C@H]5O)[C@@H](O)[C@H](O)[C@H]4O)cc3O2)cc1O [Aurantiamarin (Methyl Hesperidin)]
> 45.8	> 45.8	COc1ccc(CNc2nc(N3CCC[C@H]3CO)ncc2C(=O)NCc2ncccn2)cc1Cl [Avanafil]
> 45.8	> 45.8	NC(=O)[C@@H]1CC[C@@H]2CN1C(=O)N2OS(=O)(=O)O [Avibactam sodium]
> 45.8	> 45.8	COc1ccc(C(=O)CC(=O)c2ccc(C(C)(C)C)cc2)cc1 [Avobenzone]
> 45.8	> 45.8	CCCC1C(=O)N2C(N(C)C)=Nc3ccc(C)cc3N2C1=O (stereo unspecified) [Azapropazone]
> 45.8	> 45.8	CN1CCC(=C2c3ccccc3CCc3cccnc32)CC1 [Azatadine]
> 45.8	> 45.8	CCOc1nc2cccc(C(=O)O)c2n1Cc1ccc(-c2ccccc2-c2noc(=O)[nH]2)cc1 [Azilsartan (TAK-536)]
> 45.8	> 45.8	CCOc1nc2cccc(C(=O)OCc3oc(=O)oc3C)c2n1Cc1ccc(-c2ccccc2-c2noc(=O)[nH]2)cc1 [Azilsartan Medoxomil]
> 45.8	> 45.8	NS(=O)(=O)c1cc(-c2nnn[nH]2)c(NCc2cccs2)cc1Cl [Azosemide]

SMILES	IC50 cell viability (ICRF193 0 nM) [µM]	IC50 cell viability (ICRF193 200 nM) [µM]
CCOC(=O)C1(c2ccccc2)CCN(CCc2ccc(N)cc2)CC1 [Anileridine]	> 45.8	> 45.8
COc1ccc(C(=O)N2CCCC2=O)cc1 [Aniracetam]	> 45.8	> 45.8
O=C1c2ccccc2C(=O)c2ccccc21 [Anthraquinone]	> 45.8	> 45.8
Cc1nnc2n1-c1sc(CCC(=O)N3CCOCC3)cc1C(c1ccccc1Cl)=NC2 [Apafant]	> 45.8	> 45.8

Reference: the supplement of paper PMC12137928
